Columns and labels:
[1] = system: E. coli 683/17; assay: MIC for further growth of biofilm cells, preformed biofilm (A625nm); type: cell-based, Escherichia coli; conditions: for MICBC80: ≥80% inhibition, 18 h preformed biofilm, 20 h with substance
Procedure: (§1) Ten concentrations of NAC, RLs, and UA were tested to determine the minimum inhibitory concentration for planktonic growth, and subsequently, the six highest concentrations were applied on preformed biofilms to evaluate the biofilm eradication ability of the compounds. MIC was defined as the lowest substance concentration able to inhibit at least 80% of microbial growth (MICPC80 for planktonic cells, MICBC80 for further growth of biofilm cells), inhibit 80% of metabolic activity (MICBM80 for biofilm metabolic activity, MICMPB80 for metabolic activity of preformed biofilm), prevent biofilm formation by at least 80% (MICBF80 for biofilm formation), or reduce a preformed biofilm by at least 80% (MICBR80 for biofilm reduction). The results of MICs are summarized in Table 1 (planktonic cells) and Table 2 (biofilm-associated cells).
(§2) The determination of MICs was performed according to Chlumsky et al.. Briefly, 96-well flat-bottomed microtiter plates were inoculated with 75 µL (for biofilm formation) or 100 µL (for preformed biofilm) of bacterial suspension (A625nm 0.08 to 0.1) in technical triplicates and were then carefully mixed with the dilution series of the test substances (24 h cultivation at 25 °C for S. Infantis, 37 °C for other strains) or were directly cultivated to preform biofilms (18 h). For a positive control of bacterial growth, the inoculum was mixed with a pure sterile medium. Furthermore, the sterile medium was included in the plate as a marker of potential microbial contamination. To evaluate planktonic cells growth (MICPC80) and further growth of biofilm cells (MICBC80), the optical density of the content of the microtiter plates was measured spectrophotometrically at 625 nm before and after 24 h (for biofilm formation) of cultivation or before and after additional 20 h incubation with the tested compound (for preformed biofilm). The difference of A625nm was considered as a measure of the ability of cells to grow in the presence of the tested substances. To evaluate the inhibition of biofilm formation (MICBF80) and reduction in preformed biofilms (MICBR80), biomass was quantified using crystal violet staining, and its metabolic activity (MICBM80 and MICMPB80) was estimated by using the MTT (thiazyl tetrazolium bromide, Sigma-Aldrich, USA) reduction assay, both measured spectrophotometrically at 595 nm.
(§3) All inhibitions were calculated using the formula of Chlumsky et al. below (Equation (1)):(1) A625(595)nm inhibition (%)=A625(595)nm (control) – A625(595)nm(natural substance)/A625(595)nm (control)× 100 where A625(595)nm (control) is the absorbance of bacterial suspension/biofilm itself, and A625(595)nm(natural substance) is the absorbance of the bacterial suspension/biofilm with the added natural substance (NAC, RLs, and UA).
(§4) When the minimum inhibitory concentration could not be determined, the MIC was established as >the highest tested concentration for NAC, RLs, and UA.

[2] = system: E. coli 693/17; assay: as above; type: cell-based, Escherichia coli; conditions: for MICBC80: ≥80% inhibition, 18 h preformed biofilm, 20 h with substance
Procedure: as §1, §2, §3, §4

[3] = system: S. Infantis S13; assay: MIC for biofilm metabolic activity (MTT reduction assay); type: cell-based, Salmonella enterica Infantis; conditions: for MICBM80: ≥80% inhibition, 24 h
Procedure: as §1, §2, §3, §4

[4] = system: S. Infantis S59; assay: as above; type: cell-based, Salmonella enterica Infantis; conditions: for MICBM80: ≥80% inhibition, 24 h
Procedure: as §1, §2, §3, §4

[5] = system: S. Infantis S13; assay: MIC for metabolic activity of preformed biofilm (MTT reduction assay); type: cell-based, Salmonella enterica Infantis; conditions: for MICMPB80: ≥80% inhibition, 20 h with substance
Procedure: as §1, §2, §3, §4

[6] = system: S. Infantis S59; assay: as above; type: cell-based, Salmonella enterica Infantis; conditions: for MICMPB80: ≥80% inhibition, 20 h with substance
Procedure: as §1, §2, §3, §4

[7] = system: L. monocytogenes 164; assay: as above; type: cell-based, Listeria monocytogenes; conditions: ≥80% inhibition, 20 h with substance
Procedure: as §1
as §2, with “Furthermore, the sterile medium was included in the plate as a marker of potential microbial contamination.” left out, “The difference of A625nm was considered as a measure of the ability of cells to grow in the presence of the tested substances.” left out
as §3, §4

[8] = system: L. monocytogenes 149; assay: as above; type: cell-based, Listeria monocytogenes; conditions: ≥80% inhibition, 20 h with substance
Procedure: as §1
as §2, with “Furthermore, the sterile medium was included in the plate as a marker of potential microbial contamination.” left out, “The difference of A625nm was considered as a measure of the ability of cells to grow in the presence of the tested substances.” left out
as §3, §4

## CC(=O)c1c(O)c(C)c(O)c2c1OC1=CC(=O)C(C(C)=O)C(=O)C12C (single isomer, unassigned; (+)) [UA, (+)-usnic acid]
[1]; within tested concentrations
  maximal achieved inhibition (MICBC80 not reached): 44%
[1]
  MICBC80: > 31.3 µg/mL
[2]; within tested concentrations
  maximal achieved inhibition (MICBC80 not reached): 61%
[2]
  MICBC80: > 31.3 µg/mL
[3]; within tested concentrations
  maximal achieved inhibition (MICBM80 not reached): 41%
[3]
  MICBM80: > 31.3 µg/mL
[4]; within tested concentrations
  maximal achieved inhibition (MICBM80 not reached): 47%
[4]
  MICBM80: > 31.3 µg/mL
[5]; within tested concentrations
  maximal achieved inhibition (MICMPB80 not reached): 17%
[5]
  MICMPB80: > 31.3 µg/mL
[6]; within tested concentrations
  maximal achieved inhibition (MICMPB80 not reached): 26%
[6]
  MICMPB80: > 31.3 µg/mL
[7]
  MICMPB80: 1.96 µg/mL
[8]
  MICMPB80: 3.91 µg/mL

## CC(=O)N[C@@H](CS)C(=O)O [NAC, N-Acetyl-L-cysteine]
[1]
  MICBC80: 6250 µg/mL
[2]
  MICBC80: 3130 µg/mL
[3]
  MICBM80: 12,500 µg/mL
[4]
  MICBM80: 6250 µg/mL
[5]
  MICMPB80: 12,500 µg/mL
[6]
  MICMPB80: 12,500 µg/mL
[7]
  MICMPB80: 6250 µg/mL
[8]
  MICMPB80: 6250 µg/mL
